According to patent publication US12558345B2, “CHK1/2 inhibitors for use in the treatment of neuroblastomas and/or soft tissue sarcomas” (Eli Lilly and Company, priority 2015, dated 2026):
Where a name gives a salt, the structure may show the parent alone.

What was measured:
[1] = test system: CTG-0241 OS patient-derived xenograft; assay: Xenograft Tumor Model CTG-0241; type: in vivo, mouse; conditions: comparator day 28, p-value 0.019
Protocol: (§1) The efficacy of 5-(5-(2-(3-aminopropoxy)-6-methoxyphenyl)-1H-pyrazol-3-ylamino)pyrazine-2-carbonitrile methanesulfonic acid monohydrate is measurable in vivo in mouse models of neuroblastomas and human pediatric and adult sarcomas. 5-(5-(2-(3-Aminopropoxy)-6-methoxyphenyl)-1H-pyrazol-3-ylamino)pyrazine-2-carbonitrile methanesulfonic acid monohydrate (10 mg/kg) can be administered subcutaneously to nude mice bearing either cell-derived xenografts (CDX) or patient-derived xenografts (PDX) of human rhabdomyosarcoma, desmoplastic small round cell tumor (DSRCT), osteosarcoma, and Ewing's sarcoma using a 3 day on, 4 day off b.i.d. dosing schedule. Tumor volume and body weight can be measured two times per week. Tumor-specific parameters can be evaluated by immumohistochemistry. […]
(§2) For all “ST” models (encompassing RMS and LMS), patient-derived xenografts are established from viable human tumor tissue and are serially passaged in animals a limited number of times to maintain tumor heterogeneity. […] Tumor response is determined by tumor volume measurement performed twice per week during the course of treatment.

[2] = test system: CTG-0142 EWS patient-derived xenograft; assay: Xenograft Tumor Model CTG-0142; type: in vivo, mouse; conditions: comparator day 28, p-value 0.376
Protocol: as §1, §2

[3] = test system: Osteosarcoma xenograft models; assay: Sarcoma xenograft models by tumor subtype: Osteosarcoma; type: in vivo, mouse; conditions: age of patients 11-19 years
Protocol: as §1, §2

[4] = test system: Alveoloar Rhabdomyosarcoma xenograft models; assay: Sarcoma xenograft models by tumor subtype: Alveolar Rhabdomyosarcoma; type: in vivo, mouse; conditions: age of patients 17-24 years
Protocol: The efficacy of 5-(5-(2-(3-aminopropoxy)-6-methoxyphenyl)-1H-pyrazol-3-ylamino)pyrazine-2-carbonitrile methanesulfonic acid monohydrate is measurable in vivo in mouse models of neuroblastomas and human pediatric and adult sarcomas. 5-(5-(2-(3-Aminopropoxy)-6-methoxyphenyl)-1H-pyrazol-3-ylamino)pyrazine-2-carbonitrile methanesulfonic acid monohydrate (10 mg/kg) can be administered subcutaneously to nude mice bearing either cell-derived xenografts (CDX) or patient-derived xenografts (PDX) of human rhabdomyosarcoma, desmoplastic small round cell tumor (DSRCT), osteosarcoma, and Ewing's sarcoma using a 3 day on, 4 day off b.i.d. dosing schedule. Tumor volume and body weight can be measured two times per week. Tumor-specific parameters can be evaluated by immumohistochemistry.
Expand human RMS cancer cells SJCRH-30 (St. Jude Children's Research Hospital) in culture, harvest, and inject 5×10^6 cells in 200 μL of HBSS subcutaneously into the right rear flank of female athymic nude mice (20-22 g, Harlan Laboratories). […]
as §2

[5] = test system: CTG-0926 DSRCT patient-derived xenograft; assay: Xenograft Tumor Model CTG-0926; type: in vivo, mouse; conditions: comparator day 28, p-value <0.001
Protocol: as §1, §2

HT-29 cells = assay: ECtfs (Two-Fold Sensitization) Assay; type: cell-based
Protocol: An inhibitor of CHK1 can potentiate the anti-proliferative activity of gemcitabine (or other cytotoxics) through abrogation of the intra-S phase checkpoint, resulting in sustained and increased DNA damage. The capacity for continued tumor cell proliferation after DNA damage can be analyzed by determining the ability of cells to replicate their DNA. […] In this assay, cells are treated with gemcitabine, and then with the compound of Example 2. Following a recovery period, cells are assayed for the ability to incorporate radioactive thymidine into DNA during S phase. The ECtfs parameter is a measure of the concentration of a CHK1 inhibitor necessary to reduce by half the GI90 concentration of gemcitabine, measured in this assay in the absence of CHK1 inhibition. HT-29 cells (obtained from ATCC), are grown in RPMI 1640 plus (Gibco™) 10% (v/v) heat inactivated FBS. These cells are plated at 1.3×10^3 per well on Corning Costar 96-well tissue culture plates. After plating the cells, the tissue culture plates are held at room temperature for 45 minutes, before returning to 37° C. Plates are incubated for 24 hours prior to gemcitabine addition. Before gemcitabine addition, medium is removed from all wells and replaced with 150 μL per well of fresh RPMI medium. Gemcitabine stocks at 10 mM are prepared in PBS. Gemcitabine dilutions were prepared at 4× concentrations in RPMI medium and added to wells at 50 μL per well. The highest final concentration of gemcitabine used is 80 μM and dilutions proceed by four-fold steps. Two hours later, gemcitabine-containing medium is removed from the wells and replaced with 150 μL per well of fresh RPMI medium. […] The volume of addition is 50 μL. Compound dilutions proceed by two-fold steps, starting at 5000 nM. […] Twenty μL of this solution is added to each well, yielding 1 µCi/well of ^3H-thymidine. Cells are labeled for twenty-two hours. The medium containing ^3H-thymidine is thoroughly removed from the wells. The plates are then frozen at −20° C., for several hours. To harvest the DNA containing incorporated ^3H-thymidine, plates are thawed for several minutes, and then 120 μL per well of 0.1 N NaOH is added to each well. Each plate is then incubated at 37° C., with slow mixing on a rotator, for 10 minutes. DNA is harvested with a Filtermate 196 Harvester (PerkinElmer) and collected on 96-well Unifilter GF/C plates (PerkinElmer #6005174). The wells of the tissue culture plate on which cells had been labeled are washed with water (5×). The Unifilter plate membranes are washed with an additional 4.5 mL per well (3×1.0 mL and finally a 1.5 mL wash). The Unifi is sealed with a Backseal adhesive sheet (PerkinElmer), and the 50 μL/well of MicroScint-20 (Perkin Elmer) is added. Each plate is then sealed with a Topseal clear adhesive sheet (PerkinElmer). Plates are counted on a Topcount scintillation counter (PerkinElmer), at 1 minute per well. ^3H-thymidine counts per minute (cpm) are exported into Prism (GraphPad) for analysis and plotting. […] For plotting the data in Prism, the gemcitabine concentrations are transformed to log values, and dose-response curves are fit by non-linear regression. Neither top nor bottom fits are constrained. The ECtfs value is 0.3 nM.

SMILES | % T/C [1] [%] | % T/C [2] [%] | Result of Treatment: Stable Disease (models) [3] | Result of Treatment: Complete Response (models) [4] | % Regression [5] [%] | decrease of the EC50 of gemcitabine (HT-29 cells; HT29 cells, 3 nM of the compound of Example 2) [fold] | ECtfs value (HT-29 cells; HT-29 cells, concentration necessary to reduce by half the GI90 concentration of gemcitabine, 3H-thymidine incorporation) [nM] | effect on the proliferation of HT29 cells (HT-29 cells; compound alone, 3 nM)
COc1cccc(OCCCN)c1-c1cc(Nc2cnc(C#N)cn2)n[nH]1 [Example 5, 5-(5-(2-(3-Aminopropoxy)-6-methoxyphenyl)-1H-pyrazol-3-ylamino)pyrazine-2-carbonitrile methanesulfonic acid monohydrate] | 48 | 66 | 1/4 Stable Disease | 2/2 Complete | −76 |  |  | 
COc1cccc(OCCCN)c1-c1cc(Nc2cnc(C#N)cn2)n[nH]1 [Example 2, 5-(5-(2-(3-Aminopropoxy)-6-methoxyphenyl)-1H-pyrazol-3-ylamino)pyrazine-2-carbonitrile dihydrogen chloride salt] |  |  |  |  |  | 7 | 0.3 | little effect
